Results taken from the NIST ThermoML archive (doi:10.1021/acs.jced.7b00106).

Conditions: Hot wire method

FC(F)(F)/C=C/Cl [(E)-1-chloro-3,3,3-trifluoroprop-1-ene]
Conditions	thermal conductivity [W/m/K]
313.49 K, 134 kPa, Gas	0.01209
313.66 K, 195 kPa, Gas	0.01193
313.74 K, 96 kPa, Gas	0.01156
313.74 K, 97 kPa, Gas	0.01206
313.81 K, 164 kPa, Gas	0.01205
314.19 K, 96 kPa, Gas	0.0121
314.29 K, 165 kPa, Gas	0.01203
314.47 K, 132 kPa, Gas	0.01204
314.68 K, 96 kPa, Gas	0.01213
314.8 K, 166 kPa, Gas	0.01203
315 K, 133 kPa, Gas	0.01215
315.2 K, 96 kPa, Gas	0.01218
315.34 K, 166 kPa, Gas	0.01208
315.56 K, 132 kPa, Gas	0.01212
315.75 K, 96 kPa, Gas	0.01223
316.33 K, 96 kPa, Gas	0.01227
321.04 K, 25085 kPa, Liquid	0.08832
321.04 K, 34321 kPa, Liquid	0.09144
321.04 K, 34326 kPa, Liquid	0.09107
321.05 K, 43820 kPa, Liquid	0.0947
321.1 K, 25070 kPa, Liquid	0.08802
321.1 K, 34323 kPa, Liquid	0.09161
321.12 K, 34308 kPa, Liquid	0.0914
321.12 K, 43822 kPa, Liquid	0.09482
321.33 K, 16965 kPa, Liquid	0.08442
321.34 K, 9798 kPa, Liquid	0.08117
321.36 K, 5192 kPa, Liquid	0.07831
321.4 K, 197 kPa, Gas	0.0125
321.4 K, 16967 kPa, Liquid	0.08432
321.41 K, 254 kPa, Gas	0.01268
321.41 K, 460 kPa, Liquid	0.07538
321.42 K, 66597 kPa, Liquid	0.1039
321.43 K, 56114 kPa, Liquid	0.09911
321.44 K, 5187 kPa, Liquid	0.07816
321.44 K, 66587 kPa, Liquid	0.1042
321.45 K, 34301 kPa, Liquid	0.09197
321.46 K, 43814 kPa, Liquid	0.09486
321.47 K, 25082 kPa, Liquid	0.08816
321.47 K, 34329 kPa, Liquid	0.09187
321.47 K, 43832 kPa, Liquid	0.09487
321.48 K, 458 kPa, Liquid	0.07551
321.51 K, 66615 kPa, Liquid	0.1035
321.52 K, 56121 kPa, Liquid	0.0993
321.52 K, 66605 kPa, Liquid	0.1041
321.55 K, 34296 kPa, Liquid	0.09167
321.55 K, 43839 kPa, Liquid	0.09474
321.56 K, 25086 kPa, Liquid	0.08833
321.56 K, 34311 kPa, Liquid	0.09191
321.63 K, 145 kPa, Gas	0.01268
321.7 K, 256 kPa, Gas	0.01247
321.72 K, 196 kPa, Gas	0.01245
321.77 K, 98 kPa, Gas	0.01281
321.78 K, 16953 kPa, Liquid	0.08463
321.81 K, 9811 kPa, Liquid	0.08084
321.85 K, 5178 kPa, Liquid	0.07845
321.86 K, 66588 kPa, Liquid	0.1041
321.88 K, 56118 kPa, Liquid	0.1004
321.89 K, 16957 kPa, Liquid	0.0846
321.91 K, 466 kPa, Liquid	0.07595
321.91 K, 9793 kPa, Liquid	0.08062
321.92 K, 43825 kPa, Liquid	0.09584
321.94 K, 145 kPa, Gas	0.01263
321.94 K, 34296 kPa, Liquid	0.09207
321.94 K, 43828 kPa, Liquid	0.09571
321.96 K, 5173 kPa, Liquid	0.07856
321.96 K, 34304 kPa, Liquid	0.09237
321.97 K, 142 kPa, Gas	0.01247
321.97 K, 25089 kPa, Liquid	0.0883
321.97 K, 66599 kPa, Liquid	0.1033
321.99 K, 66600 kPa, Liquid	0.1033
322 K, 56120 kPa, Liquid	0.09953
322.01 K, 257 kPa, Gas	0.01246
322.01 K, 259 kPa, Gas	0.01279
322.01 K, 462 kPa, Liquid	0.07568
322.04 K, 43829 kPa, Liquid	0.09557
322.05 K, 99 kPa, Gas	0.01242
322.05 K, 194 kPa, Gas	0.01256
322.06 K, 34292 kPa, Liquid	0.09256
322.06 K, 43826 kPa, Liquid	0.09519
322.07 K, 189 kPa, Gas	0.01239
322.08 K, 34300 kPa, Liquid	0.09194
322.09 K, 98 kPa, Gas	0.01259
322.09 K, 25078 kPa, Liquid	0.08798
322.22 K, 122 kPa, Gas	0.0128
322.23 K, 142 kPa, Gas	0.01241
322.25 K, 164 kPa, Gas	0.01289
322.27 K, 260 kPa, Gas	0.0128
322.29 K, 144 kPa, Gas	0.01276
322.3 K, 16963 kPa, Liquid	0.08446
322.32 K, 188 kPa, Gas	0.01244
322.33 K, 99 kPa, Gas	0.01222
322.34 K, 258 kPa, Gas	0.0126
322.36 K, 9801 kPa, Liquid	0.08109
322.36 K, 66579 kPa, Liquid	0.1031
322.38 K, 66598 kPa, Liquid	0.1031
322.39 K, 193 kPa, Gas	0.01261
322.4 K, 5186 kPa, Liquid	0.07821
322.4 K, 56115 kPa, Liquid	0.09929
322.44 K, 98 kPa, Gas	0.01281
322.44 K, 16945 kPa, Liquid	0.08465
322.46 K, 43829 kPa, Liquid	0.09512
322.47 K, 43824 kPa, Liquid	0.09516
322.49 K, 450 kPa, Liquid	0.07575
322.49 K, 9815 kPa, Liquid	0.081
322.49 K, 34282 kPa, Liquid	0.09204
322.5 K, 66578 kPa, Liquid	0.1033
322.51 K, 34308 kPa, Liquid	0.0922
322.51 K, 66603 kPa, Liquid	0.1032
322.52 K, 141 kPa, Gas	0.01234
322.54 K, 260 kPa, Gas	0.01283
322.54 K, 5172 kPa, Liquid	0.07803
322.54 K, 25075 kPa, Liquid	0.08816
322.55 K, 123 kPa, Gas	0.01279
322.56 K, 164 kPa, Gas	0.0126
322.61 K, 99 kPa, Gas	0.01223
322.63 K, 187 kPa, Gas	0.01233
322.63 K, 440 kPa, Liquid	0.0752
322.63 K, 43821 kPa, Liquid	0.09452
322.64 K, 143 kPa, Gas	0.0128
322.64 K, 34270 kPa, Liquid	0.09178
322.66 K, 34302 kPa, Liquid	0.09186
322.71 K, 25078 kPa, Liquid	0.08769
322.72 K, 259 kPa, Gas	0.01251
322.78 K, 192 kPa, Gas	0.01262
322.81 K, 141 kPa, Gas	0.01231
322.82 K, 99 kPa, Gas	0.01285
322.82 K, 260 kPa, Gas	0.01282
322.83 K, 123 kPa, Gas	0.01245
322.89 K, 123 kPa, Gas	0.01281
322.89 K, 164 kPa, Gas	0.01245
322.9 K, 164 kPa, Gas	0.01257
322.9 K, 16956 kPa, Liquid	0.08425
322.91 K, 99 kPa, Gas	0.0122
322.91 K, 66592 kPa, Liquid	0.1026
322.92 K, 186 kPa, Gas	0.0124
322.92 K, 66618 kPa, Liquid	0.1032
322.96 K, 56154 kPa, Liquid	0.09964
322.97 K, 9802 kPa, Liquid	0.08079
323.03 K, 143 kPa, Gas	0.01271
323.05 K, 5181 kPa, Liquid	0.07837
323.06 K, 43815 kPa, Liquid	0.09535
323.07 K, 16973 kPa, Liquid	0.08427
323.07 K, 43817 kPa, Liquid	0.09505
323.08 K, 66614 kPa, Liquid	0.1032
323.1 K, 259 kPa, Gas	0.01262
